Where “and” joins values, the source holds several entries; their conditions need not be identical. Equal entries are not always repeated. Bridges are numbered along the chain shown (N, C = ends). Where no end group is shown, it is not given here.
Legend:
[1] = test system: Claudin-5 at tight junction of mouse brain endothelial bEnd.3 cells; experiment: Claudin-5 immunocytochemistry at tight junction in mouse brain endothelial cell cultures; assay type: cell-based
Protocol: To understand the effect of NX218 on the TEER and permeability of mouse brain endothelial cells in examples 3 and 4, the levels of the tight junction protein Claudin-5 were assessed using immunocytochemistry.
(§1) Mouse brain endothelial cells (bEnd.3, American Type Culture Collection) were cultured in DMEM supplemented with 10% fetal FBS and 2 mM sodium pyruvate in a 5% CO2 incubator at 37° C.
bEnd.3 cells were seeded on 1% fibronectin-coated Nunc Lab-Tek II Chamber Slides in culture medium (1×10^5 cells per well in 300 μL). Two days after seeding, cells were treated with vehicle or NX218 (1, 10 and 100 μM) for 1, 2 or 3 days. Cells were then fixed for 10 min at room temperature (RT) with 4% paraformaldehyde in phosphate buffered saline (PBS), washed twice with PBS and incubated with 5% normal goat serum and 0.05% Triton X-100 in PBS for 1 h at RT before overnight incubation with polyclonal rabbit anti-claudin-5 ( 1/100; 34-1600, Invitrogen) at 4° C. Cells were then washed three times with PBS and incubated with goat anti-rabbit Cy3 secondary antibody ( 1/500; ab6939, Abcam) for 2 h at RT and counterstained with Hoechst 33258 to visualize nuclei. The slide was removed from the chamber and mounted with Aqua Poly/Mount before visualization by confocal laser scanning/microscopy. Claudin-5 immunoreactivity (intensity) at membrane localization was finally quantified to evaluate Claudin-5 protein levels. The data are expressed as a percentage of the control condition.
A second independent experiment using the protocol described at example 5 was performed. Pooling the data from the 2 experiments (the first experiment was done in triplicate, the 2nd in duplicate, n=5) improves the statistical power and allow to reach statistical significance for a tendency observed at 72 hours timepoint.

[2] = test system: Occludin in mouse brain endothelial bEnd.3 cells; experiment: Occludin western blot in mouse brain endothelial cell cultures; assay type: cell-based; conditions: for Expression of Occludin, Average: average of N1-N8
Protocol: To understand the effect of NX218 on the TEER and permeability of mouse brain endothelial cells, the levels of the tight junction protein Occludin were assessed using Western Blot.
as §1
bEnd.3 cells were seeded on 12-well plates (2.5×10^5 cells per well in 1,000 μL) for western-blot analyses. Two days after seeding, cells were treated with vehicle or NX218 (1, 10 and 100 μM) for 24 hours. Proteins were isolated from the cell layers with lysis buffer (62.5 mM Tris, 2% SDS, 10 mM dithiothreitol, 10 μL protease inhibitor cocktail/100 mL (Sigma-Aldrich)), centrifugated at 12,000 r.p.m for 20 min at 4° C., and supernatants were used for analysis of tight junction proteins. Protein concentrations were determined with the Pierce BCA protein assay (Thermo Scientific). Ten (10) μL of samples and standards (working range=125-2000 μg/mL) were loaded in duplicate into a 96-well plate and 200 μL of working reagent (50 parts BCA reagent A with 1 part BCA reagent B) were added to each well, mixed on a shaker and incubated at 37° C. for 30 min. The plate was cooled to RT and the absorbance read at 562 nm. Protein concentrations were calculated from a standard curve. Ten (10) μg total protein were loaded per well for separation by SDS-polyacrylamide gel electrophoresis (12% acrylamide). Gels were transferred onto methanol-activated polyvinylidene difluoride membranes (Merck Millipore) via semi-dry transfer. Transferred membranes were reactivated with methanol and blocked under slight agitation in tris-buffered saline (TBS)-Tween-20 containing 3% weight/volume Marvel non-fat dry milk for 1 h at RT. Blocked membranes were washed three times with TBS-Tween-20 and treated with primary rabbit polyclonal antibodies against Occludin (Novus Biotech, ref. NBP1-87402, 65 kDa, 1/1000 dilution) overnight at 4° C. Membranes were washed three times for 5 min in TBS-Tween-20 and incubated with horseradish peroxidase-conjugated goat anti-rabbit secondary antibody (A6154, Sigma-Aldrich) diluted 1/2,000 in TBS-Tween-20 for 2 h at RT. Secondary antibody was removed and membranes washed four times for 5 min in TBS-Tween-20. Blots were developed by enhanced chemiluminescence (ECL). A 1:1 mix of WesternBright ECL Luminol/enhancer solution and Peroxide Chemiluminescent solution (Advansta) was incubated at RT for 2 min before being directly added onto washed blots. The LiCor C-Digit Blot Scanner was used to detect chemiluminescence over a 12-minute exposure time.

“W-S-G-W-S-S-C-S-R-S-C-G (WSGWSSCSRSCG; disulfide 7-11 (inferred)) [NX218]” was tested, and the “Claudin-5 levels, result in words” value ([1]; 24 hours, NX218 at 10 and 100 μM) was “significant increase in Claudin-5 levels”, the “Expression of Claudin-5 at tight junction” value ([1]; FIG. 3, 24-hour treatment) was “increases the expression of Claudin-5 at tight junction” and the “Expression of Claudin-5 at tight junction” value ([1]; FIG. 5, 72-hour treatment) was “increases the expression of Claudin-5 at tight junction”. For the same substance, the “Expression of Claudin-5 at tight junction, Average” value ([1]; NX218 1 μM, 24 hours, bEnd.3, average of N1-N6) was 112.5 % of Control, the “Expression of Claudin-5 at tight junction” value ([1]; NX218 1 μM, 24 hours, bEnd.3, individual replicates N1-N6) was 108.1 % of Control and 99.96 % of Control and 119.3 % of Control and 99.61 % of Control and 140.4 % of Control and 107.5 % of Control and the “Expression of Claudin-5 at tight junction, Average” value ([1]; NX218 1 μM, 48 hours, bEnd.3, average of N1-N6) was 80.63 % of Control. For the same substance, the “Expression of Claudin-5 at tight junction” value ([1]; NX218 1 μM, 48 hours, bEnd.3, individual replicates N1-N6) was 76.07 % of Control and 52.45 % of Control and 76.37 % of Control and 93.88 % of Control and 102.1 % of Control and 82.89 % of Control, the “Expression of Claudin-5 at tight junction, Average” value ([1]; NX218 1 μM, 72 hours, bEnd.3, first experiment (Table 9), average of N1-N4) was 81.69 % of Control and the “Expression of Claudin-5 at tight junction” value ([1]; NX218 1 μM, 72 hours, bEnd.3, first experiment (Table 9), individual replicates N1-N4) was 77.15 % of Control and 90.23 % of Control and 103.8 % of Control and 55.53 % of Control. The “Expression of Claudin-5 at tight junction, Average” value ([1]; NX218 1 μM, 72 hours, bEnd.3, pooled data of 2 experiments (Table 12), average of N1-N7) was 96.00 % of Control, the “Expression of Claudin-5 at tight junction” value ([1]; NX218 1 μM, 72 hours, bEnd.3, pooled data of 2 experiments (Table 12), individual replicates N1-N7) was 86.80 % of Control and 107.60 % of Control and 99.90 % of Control and 104.20 % of Control and 92.70 % of Control and 103.50 % of Control and 77.10 % of Control and the “Expression of Claudin-5 at tight junction, Average” value ([1]; NX218 10 μM, 24 hours, bEnd.3, average of N1-N6) was 151.7 % of Control. For the same substance, the “Expression of Claudin-5 at tight junction” value ([1]; NX218 10 μM, 24 hours, bEnd.3, individual replicates N1-N6) was 126.9 % of Control and 154.4 % of Control and 137 % of Control and 121.3 % of Control and 169.4 % of Control and 200.9 % of Control, the “Expression of Claudin-5 at tight junction, Average” value ([1]; NX218 10 μM, 48 hours, bEnd.3, average of N1-N6) was 97.8 % of Control and the “Expression of Claudin-5 at tight junction” value ([1]; NX218 10 μM, 48 hours, bEnd.3, individual replicates N1-N6) was 66.36 % of Control and 83.18 % of Control and 120.8 % of Control and 145.7 % of Control and 97.51 % of Control and 73.25 % of Control. For the same substance, the “Expression of Claudin-5 at tight junction, Average” value ([1]; NX218 10 μM, 72 hours, bEnd.3, first experiment (Table 9), average of N1-N4) was 70.23 % of Control, the “Expression of Claudin-5 at tight junction” value ([1]; NX218 10 μM, 72 hours, bEnd.3, first experiment (Table 9), individual replicates N1-N4) was 56.03 % of Control and 94.63 % of Control and 58.42 % of Control and 71.86 % of Control and the “Expression of Claudin-5 at tight junction, Average” value ([1]; NX218 10 μM, 72 hours, bEnd.3, pooled data of 2 experiments (Table 12), average of N1-N7) was 97.80 % of Control. For the same substance, the “Expression of Claudin-5 at tight junction” value ([1]; NX218 10 μM, 72 hours, bEnd.3, pooled data of 2 experiments (Table 12), individual replicates N1-N7) was 71.70 % of Control and 116.80 % of Control and 122.30 % of Control and 113.50 % of Control and 97.80 % of Control and 75.30 % of Control and 87.00 % of Control, the “Expression of Claudin-5 at tight junction, Average” value ([1]; NX218 100 μM, 24 hours, bEnd.3, average of N1-N6) was 180.5 % of Control and the “Expression of Claudin-5 at tight junction” value ([1]; NX218 100 μM, 24 hours, bEnd.3, individual replicates N1-N6) was 173.3 % of Control and 212.5 % of Control and 249.5 % of Control and 129 % of Control and 161.7 % of Control and 157.1 % of Control. For the same substance, the “Expression of Claudin-5 at tight junction, Average” value ([1]; NX218 100 μM, 48 hours, bEnd.3, average of N1-N6) was 98.79 % of Control, the “Expression of Claudin-5 at tight junction” value ([1]; NX218 100 μM, 48 hours, bEnd.3, individual replicates N1-N6) was 88.39 % of Control and 55.18 % of Control and 80.87 % of Control and 122.7 % of Control and 115.5 % of Control and 130.1 % of Control and the “Expression of Claudin-5 at tight junction, Average” value ([1]; NX218 100 μM, 72 hours, bEnd.3, first experiment (Table 9), average of N1-N4) was 106.6 % of Control. The “Expression of Claudin-5 at tight junction” value ([1]; NX218 100 μM, 72 hours, bEnd.3, first experiment (Table 9), individual replicates N1-N4) was 121.8 % of Control and 116 % of Control and 81.03 % of Control and 107.7 % of Control, the “Expression of Claudin-5 at tight junction, Average” value ([1]; NX218 100 μM, 72 hours, bEnd.3, pooled data of 2 experiments (Table 12), average of N1-N7) was 119.10 % of Control and the “Expression of Claudin-5 at tight junction” value ([1]; NX218 100 μM, 72 hours, bEnd.3, pooled data of 2 experiments (Table 12), individual replicates N1-N7) was 134.20 % of Control and 124.40 % of Control and 109.30 % of Control and 120.30 % of Control and 130.70 % of Control and 105.10 % of Control and 109.40 % of Control. The “Claudin-5 levels, result in words” value ([1]; NX218 at 100 μM, pooled experiments, 72 hours) was “Increases of Claudin-5 levels were maintained for at-least 72 hours”, the “Claudin-5 levels, result in words” value ([1]; after 2 or 3 days treatment (Tables 8, 9)) was “levels were similar between control and NX218 conditions” and the “Increase of occludin protein levels vs control” value (“Increase” below) ([2]; 1 μM, 24 h, bEnd.3, p=0.0309) was “+26.3%”. For the same substance, the “Increase” value ([2]; 10 μM, 24 h, bEnd.3, p=0.0053) was “+41.1%”, the “Increase” value ([2]; 100 μM, 24 h, bEnd.3, p=0.0112) was “+36.8%” and the “Occludin protein levels, result in words” value ([2]; 1, 10 and 100 μM, 24 h, compared with control) was “significant increase of occludin protein levels”. The “Expression of Occludin” value ([2]; FIG. 6, 24-hour treatment) was “increases the expression of Occludin”, the “Expression of Occludin, Average” value ([2]; NX218 1 μM, 24 hours, bEnd.3, western blot) was 126.30 % of Control and the “Expression of Occludin” value ([2]; NX218 1 μM, 24 hours, bEnd.3, western blot, individual replicates N1-N8) was 124.20 % of Control and 120.60 % of Control and 92.30 % of Control and 152.80 % of Control and 146.80 % of Control and 135.50 % of Control and 125.00 % of Control and 113.00 % of Control. The “Expression of Occludin, Average” value ([2]; NX218 10 μM, 24 hours, bEnd.3, western blot) was 141.10 % of Control, the “Expression of Occludin” value ([2]; NX218 10 μM, 24 hours, bEnd.3, western blot, individual replicates N1-N8) was 124.20 % of Control and 123.30 % of Control and 114.20 % of Control and 93.50 % of Control and 187.30 % of Control and 166.20 % of Control and 176.60 % of Control and 143.50 % of Control and the “Expression of Occludin, Average” value ([2]; NX218 100 μM, 24 hours, bEnd.3, western blot) was 136.80 % of Control. For the same substance, the “Expression of Occludin” value ([2]; NX218 100 μM, 24 hours, bEnd.3, western blot, individual replicates N1-N8) was 112.10 % of Control and 103.80 % of Control and 111.20 % of Control and 188.40 % of Control and 123.40 % of Control and 158.40 % of Control and 122.20 % of Control and 174.50 % of Control.
